Experimental data from patent publication US20260216348A1, “IRAK DEGRADATION AGENT AND USE THEREOF” (Increland, priority 2023, published 2026).

Experiments:
Format in all cases: cell-based
[1] = tested on: R848-induced IL-6 secretion in human peripheral blood mononuclear cells (PBMCs); experiment: Inhibition of R848-induced IL-6 secretion in human PBMCs (IL-6 ELISA); details: PBMC, R848 2.5 μg/mL, 20 h pre-incubation, 24 h stimulation
Description: This experiment was carried out in RPMI 1640 medium containing 10% FBS and 1% penicillin/streptomycin, with each of the compounds at an initial test concentration of 1 μM. The compound was dissolved in DMSO to prepare a stock solution, which was serially diluted into a series of working solutions with a 4-fold concentration gradient using the culture medium and then added to a 96-well plate at 10 μL per well. PBMCs (Batch No.: P122101102C; Milecell Biotechnology Inc.) were counted and diluted to a cell concentration of 1.25×10^6 cells/mL, and then added to the aforementioned compound-containing 96-well plate at 160 μL per well. The system was mixed well and incubated in a 5% CO2 incubator at 37° C. for 20 h. Then 10 μL of R848 (final concentration: 2.5 μg/mL) was added, and the culture was continued for 24 h in a 5% CO2 incubator at 37° C. After incubation, the 96-well plate was centrifuged at 2000 rpm for 4 min. The supernatant was collected and diluted 120-fold, then detected using an IL-6 ELISA kit. The OD450 values were read, and converted to IL-6 concentrations based on a standard curve.

[2] = tested on: LPS/IL-1β-induced IL-6 secretion in human peripheral blood mononuclear cells (PBMCs); experiment: Inhibition of LPS/IL-1β-induced IL-6 secretion in human PBMCs (IL-6 ELISA); details: PBMC, LPS 10 ng/mL + IL-1β 20 ng/mL, 24 h pre-incubation, 20 h stimulation
Description: This experiment was carried out in RPMI 1640 medium containing 10% FBS and 1% penicillin/streptomycin, with each of the compounds at an initial test concentration of 1 μM.
The compound was dissolved in DMSO to prepare a stock solution, which was serially diluted into some working solutions with a 5-fold concentration gradient using the culture medium and then added to a 96-well plate at 10 μL per well. PBMCs (Batch No.: P122101102C; Milecell Biotechnology Inc.) were counted and diluted to a cell concentration of about 1.3×10^6 cells/mL, and then added to the aforementioned compound-containing 96-well plate at 150 μL per well. The system was mixed well and incubated in a 5% CO2 incubator at 37° C. for 24 h. Then 5 μL of LPS (final concentration: 10 ng/mL) and 5 μL of IL-1β (final concentration: 20 ng/mL) were added to each well, respectively, and the culture was continued for 20 h in a 5% CO2 incubator at 37° C. After incubation, the 96-well plate was centrifuged at 2000 rpm for 4 min. The supernatant was collected and diluted 200-fold, then detected using an IL-6 ELISA kit. The OD450 values were read, and converted to IL-6 concentrations based on a standard curve. The dose-response curves were fitted using GraphPad 8.0 to calculate the IC50 values.

IRAK4 = biological target: T1, IRAK4 (Homo sapiens, UniProt Q9NWZ3); experiment: IRAK4 protein degradation in THP1 cells (Western blot); details: THP-1 cells, 24 h
T1 construct: Effect of the Compounds on IRAK4 Protein Degradation in THP1 Cells; endogenous in cells; host or cells: THP-1 cells
T1 sequence (Q9NWZ3 1-460): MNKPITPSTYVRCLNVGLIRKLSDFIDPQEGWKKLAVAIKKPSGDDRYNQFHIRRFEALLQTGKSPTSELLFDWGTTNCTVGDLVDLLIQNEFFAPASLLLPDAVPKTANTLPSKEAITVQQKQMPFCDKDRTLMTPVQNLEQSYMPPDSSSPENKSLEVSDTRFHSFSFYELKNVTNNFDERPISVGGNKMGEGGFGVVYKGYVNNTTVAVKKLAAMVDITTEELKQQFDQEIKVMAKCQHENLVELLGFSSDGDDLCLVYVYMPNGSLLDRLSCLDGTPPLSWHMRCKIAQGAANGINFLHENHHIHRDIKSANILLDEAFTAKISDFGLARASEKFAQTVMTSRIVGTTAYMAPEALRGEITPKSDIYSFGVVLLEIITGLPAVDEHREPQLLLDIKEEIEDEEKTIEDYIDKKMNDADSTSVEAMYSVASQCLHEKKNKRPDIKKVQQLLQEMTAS
Description: THP-1 cells were seeded into a 96-well cell culture plate, with 2×10^5 cells and 90 μL of culture medium per well. The cell culture plate was cultured in an incubator with 5% CO2 at 37° C. overnight. The compound was dissolved in DMSO to prepare a stock solution, which was serially diluted into a series of working solutions with a 5-fold concentration gradient using the culture medium and then added to the aforementioned 96-well plate at 10 μL per well. The cell culture plate was further incubated for 24 h in a 5% CO2 incubator at 37° C. After incubation, the 96-well plate was centrifuged and the supernatant was discarded, followed by adding 40 μL of cell lysis buffer containing […]/phosphatase inhibitors to each well for sufficient lysis on an ice bath. Protein quantification was performed using the BCA protein quantification kit, followed by the preparation of Western blot samples. […] After electrophoresis, protein transfer was performed using a PVDF membrane under ice bath conditions for 1 h. After the transfer was completed, the PVDF membrane was blocked with gentle shaking in 5% skim milk at room temperature for 1 h. After blocking, the PVDF membrane was incubated with the primary antibody overnight with gentle shaking at 4° C. The PVDF membrane was washed 3 times with TBST, then the secondary antibody was added and incubated for 1 h with gentle shaking at room temperature, followed by washing of the PVDF membrane with TBST for 3 times. After the washes were completed, the chemiluminescent substrate was added; the PVDF membrane was scanned using a Clinx imager, semi-quantitative analysis was performed with ImageJ software, and the DC50 was calculated using GraphPad Prism 8.0.

Row | SMILES | IC50 [1] [nM] | IC50 [2] [nM] | DC50 (IRAK4) [nM]
1 | CN(C)c1cc2nc([C@H]3CC[C@H](CN4C[C@@H](n5cc6cc(N7CCC(=O)NC7=O)ccc6n5)[C@@H](F)C4)CC3)cn2nc1NC(=O)c1cnn2cccnc12 [TM-229] | 19.5 | – | –
2 | CN(C)c1cc2nn([C@H]3CC[C@H](CN4CC[C@@H](c5nc6cc(N7CCC(=O)NC7=O)ccc6o5)C4)CC3)cc2cc1NC(=O)c1cnn2cccnc12 [TM-226] | 4.28 | – | –
3 | CN(C)c1cc2nn([C@H]3CC[C@H](CN4C[C@H](F)[C@@H](n5cc6c(F)cc(N7CCC(=O)NC7=O)cc6n5)C4)CC3)cc2cc1NC(=O)c1cnn2cccnc12 [TM-220] | 8.1 | – | –
4 | CN(C)c1cc2nn([C@H]3CC[C@H](CN4C[C@@H](n5cc6cc(C7CCC(=O)NC7=O)ccc6n5)[C@@H](F)C4)CC3)cc2cc1NC(=O)c1cnn2cccnc12 (some centres unmarked) [TM-234] | 14.4 | 8.16 | –
5 | CN(C)c1cc2nn([C@H]3CC[C@H](CN4C[C@H](F)[C@@H](n5cc6cc(C7CCC(=O)NC7=O)ccc6n5)C4)CC3)cc2cc1NC(=O)c1cnn2cccnc12 (some centres unmarked) [TM-243] | 7.67 | 3.96 | –
6 | CN(C)c1cc2nn([C@H]3CC[C@H](CN4C[C@@H](F)[C@H](n5cc6c(F)cc(C7CCC(=O)NC7=O)cc6n5)C4)CC3)cc2cc1NC(=O)c1cnn2cccnc12 (some centres unmarked) [TM-237] | 25 | 16.5 | –
7 | CN(C)c1nc2nc([C@H]3CC[C@H](CN4C[C@@H](n5cc6cc(N7CCC(=O)NC7=O)ccc6n5)[C@@H](F)C4)CC3)cn2cc1NC(=O)c1cnn2cccnc12 [TM-236] | 22.4 | – | –
8 | CN(C)c1cc2nn([C@H]3CC[C@H](CN4C[C@H](F)[C@@H](n5cc6cc(F)c(N7CCC(=O)NC7=O)cc6n5)C4)CC3)cc2cc1NC(=O)c1cnn2cccnc12 [TM-223] | 10.8 | – | –
9 | CN(C)c1cc2nn([C@H]3CC[C@H](CN4C[C@@H](F)[C@@H](n5cc6cc(N7CCC(=O)NC7=O)c(F)cc6n5)C4)CC3)cc2cc1NC(=O)c1cnn2cccnc12 [TM-239] | 10.4 | 7.31 | –
10 | CN(C)c1cc2nn([C@H]3CC[C@H](CN4CC[C@H](n5cc6c(F)cc(N7CCC(=O)NC7=O)cc6n5)C4)CC3)cc2cc1NC(=O)c1cnn2cccnc12 [TM-216] | 13.4 | – | –
11 | CN(C)c1cc2nn([C@H]3CC[C@H](CN4CC[C@H](c5nc6cc(N7CCC(=O)NC7=O)ccc6o5)C4)CC3)cc2cc1NC(=O)c1cnn2cccnc12 [TM-227] | 13.8 | – | –
12 | CN(C)c1cc2nc([C@H]3CC[C@H](CN4CCC(n5cc6c(F)cc(N7CCC(=O)NC7=O)cc6n5)CC4)CC3)cn2nc1NC(=O)c1cnn2cccnc12 [TM-228] | 14.7 | – | –
13 | CN(C)c1cc2nn([C@H]3CC[C@H](CN4C[C@@H](n5cc6c(F)cc(N7CCC(=O)NC7=O)cc6n5)[C@@H](F)C4)CC3)cc2cc1NC(=O)c1cnn2cccnc12 [TM-218] | 15.6 | – | –
14 | CN(C)c1cc2nn([C@@H]3CC[C@@H](CN4CC[C@@H](n5cc6c(F)cc(N7CCC(=O)NC7=O)cc6n5)C4)OC3)cc2cc1NC(=O)c1cnn2cccnc12 [TM-225] | 12.3 | – | –
15 | O=C1CCC(c2ccc3cn([C@@H]4CCN(C[C@H]5CC[C@H](n6cc7cc(NC(=O)c8cnn9cccnc89)c(F)cc7n6)CC5)C4)nc3c2)C(=O)N1 (some centres unmarked) [TM-222] | 14 | – | –
16 | CN(C)c1cc2nn([C@H]3CC[C@H](CN4CC[C@@H](n5cc6c(F)cc(N7CCC(=O)NC7=O)cc6n5)C4)CC3)cc2cc1NC(=O)c1cnn2cccnc12 [TM-217] | 8.59 | – | –

Row | SMILES | IC50 [1] [nM] | IC50 [2] [nM] | DC50 (IRAK4) [nM]
17 | CN(C)c1cc2nn([C@H]3CC[C@H](CN4CC[C@@H](n5cc6c(F)cc(C7CCC(=O)NC7=O)cc6n5)C4)CC3)cc2cc1NC(=O)c1cnn2cccnc12 (some centres unmarked) [TM-235] | 6.08 | – | –
18 | CN(C)c1cc2nn(C3CCC(CN4C[C@@H](F)[C@@H](n5cc6cc(N7CCC(=O)NC7=O)ccc6n5)C4)CC3)cc2cc1NC(=O)c1cnn2cccnc12 (some centres unmarked) [TM-206] | 5.49 | – | –
19 | CN(C)c1cc2nn([C@H]3CC[C@H](CN4C[C@@H](n5cc6cc(N7CCC(=O)NC7=O)c(F)cc6n5)[C@@H](F)C4)CC3)cc2cc1NC(=O)c1cnn2cccnc12 [TM-232] | 18.9 | – | –
20 | CN(C)c1cc2nn([C@H]3CC[C@H](CN4CCC5(CC4)C[C@@H](n4cc6cc(C7CCC(=O)NC7=O)c(F)cc6n4)CO5)CC3)cc2cc1NC(=O)c1cnn2cccnc12 (some centres unmarked) [TM-141] | – | 4.49 | 4.33
21 | CO[C@H]1CN(C[C@H]2CC[C@H](n3cc4cc(NC(=O)c5cnn6cccnc56)c(N(C)C)cc4n3)CC2)CC[C@@H]1n1cc2ccc(C3CCC(=O)NC3=O)cc2n1 (some centres unmarked) [TM-166] | – | 0.89 | 1.58
22 | CN(C)c1cc2nn([C@H]3CC[C@H](CN4CC[C@H](n5cc6cc(F)c(C7CCC(=O)NC7=O)cc6n5)[C@@H](F)C4)CC3)cc2cc1C(=O)Nc1cnn2cccnc12 (some centres unmarked) [TM-158] | – | 14.6 | 1.41
23 | CN(C)c1cc2nn([C@H]3CC[C@H](CN4C[C@@H](F)[C@@H](n5cc6c(F)cc(N7CCC(=O)NC7=O)cc6n5)C4)CC3)cc2cc1NC(=O)c1cnn2cccnc12 [TM-219] | 14.8 | – | –
24 | CO[C@H]1CN(C[C@H]2CC[C@H](n3cc4cc(NC(=O)c5cnn6cccnc56)c(N(C)C)cc4n3)CC2)CC[C@H]1n1cc2ccc(N3CCC(=O)NC3=O)cc2n1 [TM-33] | – | 0.87 | 2.86
25 | C[C@H]1CN(C[C@H]2CC[C@H](n3cc4cc(NC(=O)c5cnn6cccnc56)c(N(C)C)cc4n3)CC2)CC[C@@H]1n1cc2ccc(N3CCC(=O)NC3=O)cc2n1 [TM-27] | – | 1.49 | 4.27
26 | CN(C)c1cc2nn([C@H]3CC[C@H](CN4CC[C@H](n5cc6cc(N7CCC(=O)NC7=O)ccc6n5)[C@@H](F)C4)CC3)cc2cc1NC(=O)c1cnn2cccnc12 [TM-17] | – | 3.37 | 1.19
27 | CN(C)c1cc2nn([C@H]3CC[C@H](CN4CCC(c5nc6cc(C7CCC(=O)NC7=O)cc(F)c6o5)CC4)CC3)cc2cc1NC(=O)c1cnn2cccnc12 (some centres unmarked) [TM-238] | 4.18 | – | –
28 | CN(C)c1cc2nn([C@H]3CC[C@H](CN4CCC(n5cc6cc(N7CCC(=O)NC7=O)c(F)cc6n5)CC4)CC3)cc2cc1NC(=O)c1cnn2cccnc12 [TM-9] | – | 2.03 | 5.41
29 | CN(C)c1cc2nn([C@H]3CC[C@H](CN4CC[C@@H](n5cc6cc(N7CCC(=O)NC7=O)c(F)cc6n5)[C@@H](F)C4)CC3)cc2cc1NC(=O)c1cnn2cccnc12 [TM-42] | – | 1.65 | 0.93
30 | CN(C)c1cc2nn(C3CCN(C[C@H]4CC[C@H](n5cc6cc(N7CCC(=O)NC7=O)c(F)cc6n5)CC4)CC3)cc2cc1NC(=O)c1cnn2cccnc12 [TM-51] | – | 3.14 | 23.3
31 | CN(C)c1cc2nn([C@@H]3CC[C@@H](CN4CC[C@H](n5cc6c(F)cc(N7CCC(=O)NC7=O)cc6n5)C4)OC3)cc2cc1NC(=O)c1cnn2cccnc12 [TM-224] | 15.5 | – | –
